# Measured values reported in patent US10889812B2, “Short non-coding protein regulatory RNAs (sprRNAs) and methods of use” (University of Maryland, Baltimore, priority 2014, dated 2021).
# “Also recorded” adds a separate entry of the source.
# Experiments:
# p-ERM = test: IP with anti-p-ERM antibody followed by RT-PCR in transfected H1792 cells; type: binding, human; details: H1792 cells transfected with the oligonucleotide
# Description: We next wanted to determine the site critical for piR-L-163's binding toP-ERM. We first analyzed the piR-L-163 sequence and identified a candidate motif “UUNNUUUNNUU” (SEQ ID NO:495) with potentially critical for the binding (FIG. 5a). We then generated 5 mutant forms of piR-L-163 named as M1-M5 (FIG. 5b and Table 3) to test their potential impact on the p-ERM binding. For this experiment, we used H1792 cells because these cells expressed extremely low level of endogenous piR-L-163 but considerable amount of p-ERM (FIG. 5c and FIG. 11a). H1792 cells were transfected with Scr (control), Ant-163, piR-L-163 (WT), or Mutant 1 (M1) to Mutant 5 (M5) RNA oligonucletides, respectively. An anti-p-ERM antibody was used for IP followed by RT-PCR using primers specific for Scr, Ant-163, piR-L-163, or M1-M5 (Table 6) to detect the corresponding oligonucleotides.
# To amplify sncRNAs, we added an adaptor to the 3′ end, a process including adaptor ligation, RT and PCR (de Vanssay, A. et al. Paramutation in Drosophila linked to emergence of a piRNA-producing locus. Nature 490, 112-115 (2012); Li, Z. et al. Characterization of viral and human RNAs smaller than canonical MicroRNAs. J Virol. 83, 12751-12758 (2009)). For adaptor ligation, the adaptor /5′rapp/CTGTAGGCACCATCAAT/3′ddc/ (SEQ ID NO:499) with both 5′ and 3′ modification was used. Briefly, mixed 1 μl (10 pmol, ˜55 ng) of RNA 3′ adaptor and 4.4 μl (˜100 ng) of purified sncRNAs in a 1.5 ml EP tube; Incubated at 72° C. for 2 min, then placed on ice immediately and kept it on ice for at least 1 min; Added the following reagents (New England Biolabs) to the above tube: 0.8 μl 10×RNA ligase buffer, 1 μl RNase inhibitor, and 1 μl single strand RNA ligase; Mixed it well and incubated at 37° C. for 1 hr, then terminated the reaction at 65° C. for 15 min. For RT, SuperScript™ III First-Strand Synthesis System (Invitrogen) was used according to the manufacturer's instructions with gene specific primer (5′-[…]-3′) (SEQ ID NO:500). For PCR, a common reverse primer (5′-[…]-3′) (SEQ ID NO:501) and primers specific for individual sncRNAs (Table 6). Amplification conditions were denaturation at 95° C. for 30 s (5 min for the first cycle), annealing at 60° C. for 20 s and extension at 72° C. for 20 s (2 min for the last cycle) for 25 cycles.
# For IP using anti-human Moesin or p-ERM antibodies, anti-Moesin (Clone Q480, Catalog No. 3150, Cell Signaling) or anti-p-ERM (Clone 41A3, Catalog No. 3149, Cell Signaling) antibodies were used and a rabbit IgG was used as a control. Briefly, Saturated protein G agarose beads (Sigma-Aldrich) with rabbit IgG, anti-Moesin or anti-p-ERM antibodies, respectively (1 μg antibody was used for 4 μl agarose beads) at 4° C. for 3 hrs, centrifuged at 2,200×g for 5 min, and discarded the upper aqueous phase; (2) Protein extracts prepared from cells using lysis buffer (20 mM Tris-cl, pH7.6, 150 mM NaCl, 20 mM KCl, 1.5 mM MgCl2, 0.5% NP-40, 0.5 mM PMSF) were pre-cleared using protein G agarose at 4° C. for 2 hrs, centrifuged at 2,200×g for 5 min, and transferred the upper aqueous phase to above tubes with agarose beads saturated with antibodies, respectively; Kept the tubes rotating overnight at 4° C., centrifuged at 2,200×g for 5 min, and washed the beads with lysis buffer twice; Extracted total RNAs from beads using Trizol Reagent (Life Technologies); Amplification of piR-L-163 or its mutants was performed according to the steps described in the “RT-PCR” section.
# H1792 cells = test: Trans-well invasion assay; type: cell-based, human; details: H1792, vs control RNA oligonucleotides
# Description: We then tested the potential impact of piR-L-163 in cell migration and invasion, two of the properties involving ERM's biological functions (Fehon, R. G., Mclatchey, A. I. & Bretscher, A. Organizing the cell cortex: the role of ERM proteins. Nat Rev Mol Cell Biol. 11, 276-287 (2010); Hunter, K. W. Ezrin, a key component in tumor metastasis. Trends Mol. Med. 10, 201-204 (2004); Luo, Y. et al. Recognition of CD146 as an ERM-binding protein offers novel mechanisms for melanoma cell migration. Oncogene 31, 306-321 (2013); Clucas, J. & Valderrama, F. ERM proteins in cancer progression. J Cell Sci. 128, 1253 (2015)).
# Briefly, 24 hrs after transfection, 6×10^4 cells were placed in the upper chamber of Matrigel Invasion Chambers (BD Bioscience) with growth factor-free Keratinocyte-SFM and the bottom chamber were exposed to Keratinocyte-SFM medium supplemented with L-Glutamine, prequalified human recombinant EGF 1-53 and BPE. Invading cells were evaluated after 12 hrs according to the manufacturer's instruction. The numbers of invading cells were adjusted 15% downwards for Ant-163 treated cells or 15% upwards for piR-L-163 treated cells to compensate the differences for the proliferation rates.
# F-actin and EBP50 = test: Binding of p-ERM/moesin with F-actin and EBP50 in IP products of H522 cells; type: cell-based, human; details: together with Moesin-WT
Substance,oligonucleotide detected by RT-PCR in anti-p-ERM IP products (binding to p-ERM) (p-ERM),invasion capability (H1792 cells),binding of moesin with F-actin and EBP50 (F-actin and EBP50)
"Ant-163: DNA sequence antisense to piR-L-163, SEQ ID NO:496, 5′-GGTCAGAGAATCAAAGTAACATCATGATAT-3′ (DNA, backbone and methylation of C not given here)",no RT-PCR band could be detected,no impact,
"piR-L-163: sprRNA, SEQ ID NO:282; piRNA-L aligned to intron 10 of LAMC2; AUAUCAUGAUGUUACUUUGAUUCUCUGACC with 3′ 2′-O-methylation (listed as RNA, chemistry not fully specified; listed as Homo sapiens)",strong RT-PCR band was detected,significantly decreased invasion capability; also recorded: significantly reduced the number of invading cells,enhanced binding with F-actin and EBP50
